Data set [1] concerns APP/PS1 mouse model of AD. The settings on record: 12 months old APP/PS1 mice; cited from earlier work.
Data set [2] deals with APP/PS1 transgenic mice. In words: Beta-amyloid plaque load in cortex by immunohistochemistry, transgenic Alzheimer's disease mouse model. The class given is in vivo. The settings on record: FIG. 1; 25 nmol/kg i.p. once daily for 8 weeks. An excerpt:
(§1) Transgenic Alzheimer's Disease Mouse Model
(§2) Animal models have been developed to test novel drugs. A standard model for Alzheimer's disease is transgenic mice that express human mutated genes for amyloid production that are known to induce Alzheimer's disease in humans. These APP/PS1 transgenic mice recapitulate some of the symptoms of Alzheimer's disease such as the aggregation of amyloid in the brain, memory loss and the loss of synapses (Radde et al., 2006).
(§3) The APP/PS1 mice express human Swedish mutated APP and human mutated presenilin-1 which induce Alzheimer's Disease in humans.
(§4) The dose of peptide tested was 25 nmol/kg body weight. The peptides were administered by a once-daily intraperitoneal injection for 8 weeks. Saline injections were administered as a control. Five animals per group were injected with a peptide or a saline control.
(§5) Brain Tissue Analysis for Amyloid Plaques and Synapse Numbers in AD Mice
(§6) Animals (5 per group) were perfused transcardially with 30 ml of ice-cold PBS and 30 ml of ice-cold 4% paraformaldehyde to postfix the brain. The brains were removed and placed in fresh 30% sucrose solution in PBS to cryoprotect tissue and cut at a thickness of 40 μm on a cryostat. Sections were chosen according to stereological rules, with the first section taken at random and every 5th section afterwards. Between 7 and 13 sections were analysed per brain. […]

For data set [3], the system named is APP/PS1 transgenic mice. In words: Synaptic densities (synaptophysin immunohistochemistry) in cortex, transgenic Alzheimer's disease mouse model. To be noted: FIG. 2; 25 nmol/kg i.p. once daily for 8 weeks. The class given is in vivo.
Source text: as §1, §2, §3, §4, §5, §6

In data set [4] the test system is C57BL/6 mice given MPTP. In words: Rotarod motor control test, MPTP Parkinson mouse model. The class given is in vivo. The settings on record: FIG. 3; 25 nmol/kg i.p. once daily.
Source text: (§7) A standard model to induce Parkinson like symptoms in mice is the injection of the chemical (MPTP) (Li et al., 2009). This chemical impairs or kills neurons in the brain that produce dopamine. The mice develop motor impairments, and the dopaminergic neurons in the brain are reduced in numbers and function. The enzyme tyrosine hydroxylase (TH) is required to synthetise dopamine. A loss of TH signifies a loss of dopamine production (Harkavyi et al., 2008).
(§8) Adult male C57BL/6 mice were given the dopaminergic toxin MPTP (20 mg/kg in 0.1 mL of PBS i.p. at 2-h intervals of 4 doses MPTP; Sigma) or vehicle (PBS). This treatment selectively affects dopaminergic neurons and induces Parkinson-like symptoms in mice.
as §4
Rotarod Motor Control Test
The rotarod consists of a rotating pole that accelerates over time. Mice are placed on the rod, and motor skills are tested by accelerating the rotation. As the rotation increases, animals lose grip and fall on a cushion located below the rod. […] Each animal's endurance time was recorded, and the average was calculated. Data were analysed using a one-way ANOVA with post-hoc Bonferroni tests.
A general note: In the rotarod test animals must keep their balance on a rotating rod.

In data set [5] the test system is C57BL/6 mice given MPTP. In words: Open-field motor activity task, MPTP Parkinson mouse model. To be noted: FIG. 4; 25 nmol/kg i.p. once daily. The class given is in vivo.
Source text: as §7, §8, §4
Open-Field Motor Activity Task
Mice (6 per group) received a session of 5 min in the empty open-field (58 cm in diameter; 35 cm high walls) with painted grey walls and grey floor. […] Motor activity was recorded by total path length and travel speed. Data were analysed using two-way ANOVA with post-hoc tests.

Consider D-Ala^2-GIP, for which, in data set [1], the amyloid plaque load result is listed as “much reduced”; the “synaptic plasticity in area CA1 of the hippocampus and spatial memory formation” value was “unimpaired”.
As to “YXEGTFTSDYSIYLDKQAAXEFV[Cys-40 kDAPEG]WLLAGGPSSGAPPPS[Lys-γE-C16]-NH2 (YXEGTFTSDYSIYLDKQAAXEFVXWLLAGGPSSGAPPPSX; 40 kDa PEG on Cys24; Lys γGlu-C16; C-amide; GIP/GLP1 co-agonist peptide; VARIANT 2, 20 Xaa = amino-isobutyric acid; VARIANT 24 Xaa = Cys with a covalently linked PEG molecule having an average molecular weight of 40kDa; VARIANT 40 Xaa = lysine residue connected to gamma- glutamate and C16, wherein C16 is a saturated fatty acid or palmitate) [DA2, pegylated version of DA1, position 24 modified to cysteine, γ-Glu spacer linking the C16 fatty acid]”, in the data set with APP/PS1 transgenic mice [2], the “beta-amyloid plaque load in the cortex (% area positive for beta amyloid)” value is recorded as “reduces beta-amyloid plaque load” and the “beta-amyloid plaque load, compared with single GIP or GLP-1 analogues” value was “superior to the single GIP or GLP-1 analogues”. Also, the “synapse loss in the cortex (synaptic densities)” value in the data set with APP/PS1 transgenic mice [3] is listed as “protected from synapse loss”. The “impairment of motor skills induced by MPTP (rotarod endurance time)” value with C57BL/6 mice given MPTP [4] is “protect mice from an impairment of motor skills”. Also, the “impairment of motor activity induced by MPTP” value in the data set on C57BL/6 mice given MPTP [5] is reported as “protect mice from an impairment of motor activity”.
